Test results taken from paper PMC9841527 (Journal of Medicinal Chemistry, 2022).

How the values were obtained:
MettL16 = molecular target: T1, MettL16 (Homo sapiens, UniProt Q86W50); test: Selectivity assay, MettL16; format: biochemical; settings: [I] = 10 μM, [SAM] = 160 μM or 30 μM
T1 sequence (Q86W50 1-562): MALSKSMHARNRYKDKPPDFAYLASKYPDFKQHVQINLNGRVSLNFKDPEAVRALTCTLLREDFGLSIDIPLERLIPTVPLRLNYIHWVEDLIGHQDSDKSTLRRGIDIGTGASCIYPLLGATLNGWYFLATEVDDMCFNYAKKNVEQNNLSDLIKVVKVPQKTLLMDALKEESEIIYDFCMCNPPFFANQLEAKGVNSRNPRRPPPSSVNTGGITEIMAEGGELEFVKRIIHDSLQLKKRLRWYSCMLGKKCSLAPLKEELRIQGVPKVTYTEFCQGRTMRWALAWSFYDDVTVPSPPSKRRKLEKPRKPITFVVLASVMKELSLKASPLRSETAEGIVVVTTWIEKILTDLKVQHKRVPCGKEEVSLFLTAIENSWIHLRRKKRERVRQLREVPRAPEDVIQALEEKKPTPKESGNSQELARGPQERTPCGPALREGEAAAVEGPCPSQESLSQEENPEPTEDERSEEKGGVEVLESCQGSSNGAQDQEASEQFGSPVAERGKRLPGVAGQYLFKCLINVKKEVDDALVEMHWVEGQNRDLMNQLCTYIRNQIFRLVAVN

[1] = molecular target: T2, A1 adenosine receptor (A1AR) (Homo sapiens, UniProt P30542); test: A1AR agonist radioligand binding assay; settings: compound 10 μM, [3H]CCPA 1 nM, transfected CHO cell membranes
T2 sequence (P30542 1-326): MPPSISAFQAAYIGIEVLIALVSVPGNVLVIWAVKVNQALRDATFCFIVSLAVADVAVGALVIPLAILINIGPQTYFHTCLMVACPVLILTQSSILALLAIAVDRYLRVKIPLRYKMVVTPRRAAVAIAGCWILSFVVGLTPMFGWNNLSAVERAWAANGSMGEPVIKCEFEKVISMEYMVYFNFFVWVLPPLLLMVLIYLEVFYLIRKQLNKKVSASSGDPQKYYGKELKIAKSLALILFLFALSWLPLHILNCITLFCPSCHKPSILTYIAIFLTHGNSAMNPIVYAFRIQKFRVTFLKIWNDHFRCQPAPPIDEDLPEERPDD

Dam = molecular target: T3, Dam (Escherichia coli, UniProt P0AEE8); format: biochemical
T3 sequence (P0AEE8 1-278): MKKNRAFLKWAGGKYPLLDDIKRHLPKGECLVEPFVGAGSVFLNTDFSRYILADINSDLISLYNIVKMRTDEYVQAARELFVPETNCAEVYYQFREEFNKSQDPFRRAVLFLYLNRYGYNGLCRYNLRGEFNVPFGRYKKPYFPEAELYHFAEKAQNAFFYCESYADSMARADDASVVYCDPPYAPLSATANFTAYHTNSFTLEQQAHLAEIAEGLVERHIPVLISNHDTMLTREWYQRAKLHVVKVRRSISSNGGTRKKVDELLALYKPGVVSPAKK

CcrM = CcrM (Caulobacter vibrioides, UniProt P0CAW2); format: biochemical, Caulobacter crescentus
Sequence of CcrM (P0CAW2 whole entry): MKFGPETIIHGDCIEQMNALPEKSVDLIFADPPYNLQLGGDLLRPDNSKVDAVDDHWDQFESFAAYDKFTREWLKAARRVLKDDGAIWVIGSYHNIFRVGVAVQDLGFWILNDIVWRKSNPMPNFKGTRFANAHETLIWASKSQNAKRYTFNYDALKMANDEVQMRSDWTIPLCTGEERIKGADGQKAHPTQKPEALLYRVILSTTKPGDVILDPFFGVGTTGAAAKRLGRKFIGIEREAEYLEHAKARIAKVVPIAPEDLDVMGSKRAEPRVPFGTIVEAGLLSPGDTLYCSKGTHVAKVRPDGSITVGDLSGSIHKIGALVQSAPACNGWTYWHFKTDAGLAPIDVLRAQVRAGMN

Structure (SMILES) | inhibition of MettL16 (MettL16) | inhibition of control radioligand specific binding, A1AR [1] | inhibition of Dam (Dam) | inhibition of CcrM (CcrM)
OC[C@H]1O[C@@H](n2cnc3c(NCCCc4ccc(O)cc4)ncnc32)[C@H](O)[C@@H]1O [Compound 16, (2R,3S,4R,5R)-2-(Hydroxymethyl)-5-(6-((3-(4-hydroxyphenyl)propyl)amino)-9H-purin-9-yl)tetrahydrofuran-3,4-diol] | none of them showed any significant inhibition | minimal inhibition of specific binding | none of them showed any significant inhibition | none of them showed any significant inhibition
CC(C)(C)OC(=O)N1CCC(CCCNc2ncnc3c2ncn3[C@@H]2O[C@H](CO)[C@@H](O)[C@H]2O)CC1 [Compound 39, tert-Butyl-4-(3-((9-((2R,3R,4S,5R)-3,4-dihydroxy-5-(hydroxymethyl)tetrahydrofuran-2-yl)-9H-purin-6-yl)amino)propyl)piperidine-1-carboxylate] | none of them showed any significant inhibition | minimal inhibition of specific binding | none of them showed any significant inhibition | none of them showed any significant inhibition
